Data from ChEMBL document CHEMBL5143599, “Unraveling the Design and Discovery of c-Jun N-Terminal Kinase Inhibitors and Their Therapeutic Potential in Human Diseases” (J Med Chem, 2022).
One block for each compound: values may come before it. Non-standard residues stand in square brackets, D forms with d. Residues, ends and D or L forms follow the SMILES beside them. Ahx = NCCCCCC(=O)O

Legend:
[1] = target: T1, Mitogen-activated protein kinase 8 (Homo sapiens, UniProt P45983); assay: Inhibition of JNK1 (unknown origin) using biotinylated FL-ATF-2 as substrate incubated for 15 mins by HTRF assay
[2] = target: T2, Mitogen-activated protein kinase 10 (Homo sapiens, UniProt P53779); assay: Inhibition of JNK3 (unknown origin) using biotinylated FL-ATF-2 as substrate incubated for 15 mins by HTRF assay
[3] = target: T3, c-Jun N-terminal kinase, JNK (Homo sapiens, UniProt P45983+P53779+P45984); assay: Inhibition of c-Jun phosphorylation in human A-375 cells; assay type: cell-based
[4] = target: T3, c-Jun N-terminal kinase, JNK; assay: Inhibition of c-Jun phosphorylation in human HeLa cells; assay type: cell-based
[5] = target: T2, Mitogen-activated protein kinase 10; assay: Inhibition of JNK3 (unknown origin) irradiated with 400 nm light
[6] = target: T2, Mitogen-activated protein kinase 10; assay: Inhibition of JNK3 (unknown origin) in dark
[7] = target: T1, Mitogen-activated protein kinase 8; assay: Inhibition of JNK1 (unknown origin)
[8] = target: T2, Mitogen-activated protein kinase 10; assay: Inhibition of JNK3 (unknown origin)
[9] = target: Mitogen-activated protein kinase 14 (Homo sapiens, UniProt Q16539); assay: Inhibition of p38alpha (unknown origin)
[10] = target: Leucine-rich repeat serine/threonine-protein kinase 2 (Homo sapiens, UniProt Q5S007); assay: Inhibition of LRRK2 (unknown origin)
[11] = target: T1, Mitogen-activated protein kinase 8; assay: Inhibition of JNK1 (unknown origin) incubated for 1 hr by TR-FRET assay
[12] = target: T2, Mitogen-activated protein kinase 10; assay: Inhibition of JNK3 (unknown origin) using GST-c-jun (1-221) as substrate by scintillation counter analysis
[13] = target: Mitogen-activated protein kinase 9 (Homo sapiens, UniProt P45984); assay: Inhibition of JNK2 (unknown origin) using GST-c-jun (1-221) as substrate by scintillation counter analysis
[14] = target: T1, Mitogen-activated protein kinase 8; assay: Inhibition of JNK1 (unknown origin) using GST-c-jun (1-221) as substrate by scintillation counter analysis
[15] = Antitumor activity against UVB-induced skin cancer SKH-1 mouse model assessed as reduction in tumor growth at 20 nmol, top relative to control; assay type: functional, Tumor cell line; set-up: scale not given: the % may be the effect or the level left
[16] = Antitumor activity against UVB-induced skin cancer SKH-1 mouse model assessed as reduction in tumor growth at 4 nmol, top relative to control; assay type: functional, Tumor cell line; set-up: scale not given: the % may be the effect or the level left
[17] = Inhibition of transformation of H-RAS induced mouse JB6 C1 41 cells at 5 uM; assay type: functional, JB6 Cl 41-5a; set-up: scale not given: the % may be the effect or the level left
[18] = target: Mitogen-activated protein kinase 8 (Mus musculus, UniProt Q91Y86); assay: Inhibition of JNK1 in mouse JB6 C1 41 cell lysate incubated for 1 hr relative to control; assay type: subcellular, JB6 Cl 41-5a
Sequence of Mitogen-activated protein kinase 8 (Mus musculus, UniProt Q91Y86) (Q91Y86 whole entry): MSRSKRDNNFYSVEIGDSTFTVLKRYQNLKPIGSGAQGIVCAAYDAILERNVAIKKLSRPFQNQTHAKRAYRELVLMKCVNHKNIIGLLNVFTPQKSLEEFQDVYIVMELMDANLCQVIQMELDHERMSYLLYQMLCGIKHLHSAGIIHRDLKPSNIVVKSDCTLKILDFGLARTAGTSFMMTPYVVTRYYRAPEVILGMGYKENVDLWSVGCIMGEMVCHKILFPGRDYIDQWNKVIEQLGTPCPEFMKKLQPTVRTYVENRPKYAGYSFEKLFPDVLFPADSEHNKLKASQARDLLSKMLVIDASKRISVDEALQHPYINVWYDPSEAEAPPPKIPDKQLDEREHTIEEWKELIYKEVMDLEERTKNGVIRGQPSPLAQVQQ

T1 sequence (P45983 whole entry): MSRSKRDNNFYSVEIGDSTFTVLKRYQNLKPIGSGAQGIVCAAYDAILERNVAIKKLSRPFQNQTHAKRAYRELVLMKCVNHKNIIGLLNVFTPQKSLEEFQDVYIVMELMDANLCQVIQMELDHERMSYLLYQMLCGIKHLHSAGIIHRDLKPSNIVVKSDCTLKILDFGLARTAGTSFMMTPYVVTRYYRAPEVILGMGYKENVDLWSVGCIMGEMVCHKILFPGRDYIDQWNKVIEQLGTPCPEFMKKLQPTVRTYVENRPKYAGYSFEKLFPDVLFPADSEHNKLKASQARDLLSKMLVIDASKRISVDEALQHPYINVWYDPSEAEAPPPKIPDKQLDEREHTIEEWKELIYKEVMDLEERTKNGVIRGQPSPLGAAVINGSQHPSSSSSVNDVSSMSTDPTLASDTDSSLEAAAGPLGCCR
T2 sequence (P53779 whole entry): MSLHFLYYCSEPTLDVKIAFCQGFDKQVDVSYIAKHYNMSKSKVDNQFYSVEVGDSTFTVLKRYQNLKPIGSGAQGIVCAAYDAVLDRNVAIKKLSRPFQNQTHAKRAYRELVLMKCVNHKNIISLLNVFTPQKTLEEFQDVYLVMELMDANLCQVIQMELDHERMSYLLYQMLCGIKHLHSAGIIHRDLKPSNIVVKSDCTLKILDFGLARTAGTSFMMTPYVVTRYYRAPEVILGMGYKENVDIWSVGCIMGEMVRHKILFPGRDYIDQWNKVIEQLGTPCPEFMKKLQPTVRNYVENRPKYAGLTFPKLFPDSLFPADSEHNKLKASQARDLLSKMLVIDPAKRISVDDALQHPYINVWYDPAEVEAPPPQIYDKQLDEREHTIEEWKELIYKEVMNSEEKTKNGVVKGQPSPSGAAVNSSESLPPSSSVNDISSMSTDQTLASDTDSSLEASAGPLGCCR
Sequence of Mitogen-activated protein kinase 14 (Q16539 whole entry): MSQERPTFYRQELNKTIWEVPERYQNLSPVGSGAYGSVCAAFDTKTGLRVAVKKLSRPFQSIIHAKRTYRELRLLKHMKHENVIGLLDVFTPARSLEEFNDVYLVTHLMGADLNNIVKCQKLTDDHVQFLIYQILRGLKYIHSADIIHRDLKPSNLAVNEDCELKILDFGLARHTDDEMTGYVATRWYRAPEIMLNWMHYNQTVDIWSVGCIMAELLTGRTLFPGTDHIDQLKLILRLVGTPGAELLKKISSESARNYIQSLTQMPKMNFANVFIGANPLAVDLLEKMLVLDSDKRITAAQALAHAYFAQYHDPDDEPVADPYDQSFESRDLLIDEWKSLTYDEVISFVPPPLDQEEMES
Sequence of Mitogen-activated protein kinase 9 (P45984 whole entry): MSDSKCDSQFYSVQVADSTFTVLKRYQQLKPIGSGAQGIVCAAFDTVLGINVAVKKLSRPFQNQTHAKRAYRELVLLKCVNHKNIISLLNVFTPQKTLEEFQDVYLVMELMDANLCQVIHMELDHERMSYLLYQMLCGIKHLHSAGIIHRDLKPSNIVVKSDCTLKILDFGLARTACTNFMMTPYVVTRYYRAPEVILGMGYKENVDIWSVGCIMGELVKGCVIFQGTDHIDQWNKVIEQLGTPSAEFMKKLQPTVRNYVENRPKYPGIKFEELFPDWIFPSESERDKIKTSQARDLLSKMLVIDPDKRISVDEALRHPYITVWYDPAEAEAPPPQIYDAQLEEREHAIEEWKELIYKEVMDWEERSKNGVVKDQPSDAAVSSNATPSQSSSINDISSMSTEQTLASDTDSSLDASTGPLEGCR
Sequence of Leucine-rich repeat serine/threonine-protein kinase 2 (Q5S007 whole entry): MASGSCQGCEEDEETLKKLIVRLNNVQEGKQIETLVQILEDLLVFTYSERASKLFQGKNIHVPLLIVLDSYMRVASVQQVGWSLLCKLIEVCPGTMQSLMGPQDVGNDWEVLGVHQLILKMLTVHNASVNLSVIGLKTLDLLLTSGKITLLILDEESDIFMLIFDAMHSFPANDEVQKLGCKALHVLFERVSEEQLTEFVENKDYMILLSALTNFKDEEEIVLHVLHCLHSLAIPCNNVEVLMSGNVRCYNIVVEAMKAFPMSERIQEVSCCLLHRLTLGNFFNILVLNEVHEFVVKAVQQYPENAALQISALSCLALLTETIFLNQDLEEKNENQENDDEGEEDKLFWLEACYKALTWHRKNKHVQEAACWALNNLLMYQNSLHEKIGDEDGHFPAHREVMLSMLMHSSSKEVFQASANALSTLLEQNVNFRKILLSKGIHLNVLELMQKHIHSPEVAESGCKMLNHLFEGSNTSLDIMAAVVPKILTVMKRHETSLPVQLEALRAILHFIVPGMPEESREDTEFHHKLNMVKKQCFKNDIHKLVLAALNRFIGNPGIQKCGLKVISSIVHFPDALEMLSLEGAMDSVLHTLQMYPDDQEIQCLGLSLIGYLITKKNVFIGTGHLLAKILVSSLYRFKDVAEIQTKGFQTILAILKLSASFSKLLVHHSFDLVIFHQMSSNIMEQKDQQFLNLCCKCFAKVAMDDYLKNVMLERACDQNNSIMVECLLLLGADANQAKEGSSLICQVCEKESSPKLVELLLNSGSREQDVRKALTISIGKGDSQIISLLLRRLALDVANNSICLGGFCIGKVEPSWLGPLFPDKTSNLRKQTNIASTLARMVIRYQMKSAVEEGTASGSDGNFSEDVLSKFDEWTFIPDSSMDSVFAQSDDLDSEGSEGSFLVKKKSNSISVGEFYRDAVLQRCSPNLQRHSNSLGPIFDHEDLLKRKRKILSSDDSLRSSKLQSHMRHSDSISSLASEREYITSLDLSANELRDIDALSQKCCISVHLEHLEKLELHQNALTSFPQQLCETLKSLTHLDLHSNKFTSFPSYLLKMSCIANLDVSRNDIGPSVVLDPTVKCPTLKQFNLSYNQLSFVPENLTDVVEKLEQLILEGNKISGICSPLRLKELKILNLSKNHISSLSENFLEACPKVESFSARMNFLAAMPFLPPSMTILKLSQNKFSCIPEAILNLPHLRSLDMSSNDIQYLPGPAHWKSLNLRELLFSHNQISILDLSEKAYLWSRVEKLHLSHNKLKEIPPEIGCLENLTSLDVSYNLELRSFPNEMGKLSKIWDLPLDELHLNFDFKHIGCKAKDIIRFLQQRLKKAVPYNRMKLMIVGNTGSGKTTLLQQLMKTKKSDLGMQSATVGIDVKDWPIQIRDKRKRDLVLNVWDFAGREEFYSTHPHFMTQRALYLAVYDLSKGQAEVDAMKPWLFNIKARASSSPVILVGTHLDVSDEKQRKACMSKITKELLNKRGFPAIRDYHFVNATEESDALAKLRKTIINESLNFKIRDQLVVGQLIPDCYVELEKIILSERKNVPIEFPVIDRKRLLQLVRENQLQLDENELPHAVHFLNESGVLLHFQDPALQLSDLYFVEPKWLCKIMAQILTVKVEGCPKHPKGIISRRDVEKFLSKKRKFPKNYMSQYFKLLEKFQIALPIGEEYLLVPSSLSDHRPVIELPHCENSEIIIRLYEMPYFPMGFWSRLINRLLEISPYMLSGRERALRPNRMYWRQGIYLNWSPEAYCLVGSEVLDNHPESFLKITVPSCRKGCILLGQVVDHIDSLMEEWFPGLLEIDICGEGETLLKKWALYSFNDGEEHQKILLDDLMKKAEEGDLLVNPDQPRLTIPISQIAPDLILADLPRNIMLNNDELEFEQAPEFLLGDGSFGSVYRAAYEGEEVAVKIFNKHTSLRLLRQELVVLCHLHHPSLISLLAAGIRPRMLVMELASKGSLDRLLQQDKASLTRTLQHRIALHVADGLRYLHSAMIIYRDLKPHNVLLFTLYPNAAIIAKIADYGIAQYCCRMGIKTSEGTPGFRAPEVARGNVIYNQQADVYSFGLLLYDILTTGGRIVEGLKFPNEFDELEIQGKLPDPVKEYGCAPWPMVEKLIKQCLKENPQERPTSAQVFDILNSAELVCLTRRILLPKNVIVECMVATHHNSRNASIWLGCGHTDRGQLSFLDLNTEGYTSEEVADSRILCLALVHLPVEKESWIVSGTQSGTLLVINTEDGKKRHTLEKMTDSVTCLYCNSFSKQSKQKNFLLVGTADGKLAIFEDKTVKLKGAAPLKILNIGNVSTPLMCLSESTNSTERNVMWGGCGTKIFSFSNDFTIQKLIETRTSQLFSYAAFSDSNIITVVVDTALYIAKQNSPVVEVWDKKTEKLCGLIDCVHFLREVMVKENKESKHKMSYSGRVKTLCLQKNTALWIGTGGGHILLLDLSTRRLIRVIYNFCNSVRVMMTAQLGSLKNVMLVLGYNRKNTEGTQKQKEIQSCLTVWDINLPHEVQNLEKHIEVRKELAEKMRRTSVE

Compound: CN(C)C/C=C/C(=O)Nc1cccc(C(=O)Nc2ccc(Nc3nccc(-c4c(-c5ccccc5)nn5ccccc45)n3)cc2)c1
- EC50 [3]: 0.0086 µM
- EC50 [4]: 0.048 µM

Compound: C=CC(=O)Nc1cccc(C(=O)Nc2ccc(Nc3cc(-c4c(C)nc(SC)n4C)ccn3)cc2)c1
- IC50 [9]: 1.95 µM
- IC50 [8]: 2 µM

Compound: CSc1nc(C)c(-c2ccnc(Nc3ccc(N4CCOCC4)cc3)c2)[nH]1
- IC50 [9]: > 10 µM
- IC50 [8]: 0.184 µM

Compound: O=c1c(O)c(-c2cc(O)c(O)c(O)c2)oc2cc(O)c(O)c(O)c12
- IC50 [7]: 3.4 µM

Compound: COCCNc1nnc(Sc2ncc([N+](=O)[O-])s2)s1
- IC50 [11]: 0.28 µM

Compound: CC[C@H](C)[C@H](NC(=O)[C@@H]1CCCN1)C(=O)N[C@@H](CS)C(=O)N[C@@H](CCCNC(=N)N)C(=O)N1CCC[C@H]1C(=O)N[C@H](C(=O)N[C@H](C(=O)N[C@@H](CC(C)C)C(=O)N[C@@H](CC(N)=O)C(=O)N[C@@H](CC(C)C)C(=O)N[C@@H](Cc1ccccc1)C(=O)NCCCCCC(=O)N[C@@H](CCCNC(=N)N)C(=O)N[C@@H](CCCNC(=N)N)C(=O)N[C@@H](C)C(=O)N[C@@H](CCCNC(=N)N)C(=O)N[C@@H](CCCNC(=N)N)C(=O)N[C@@H](C)C(=O)N[C@@H](CCCNC(=N)N)C(=O)N[C@@H](CCCNC(=N)N)C(=O)N[C@@H](CCCNC(=N)N)C(=O)O)[C@@H](C)O)[C@@H](C)O (H-PICRPTTLNLF[Ahx]RRARRARRR-OH)
- IC50 [12]: 1.2 µM
- IC50 [13]: 0.089 µM
- IC50 [14]: 1.1 µM

Compound: O=c1c(O)c(-c2ccc(O)c(O)c2)oc2cc(O)c(O)c(O)c12 [QUERCETAGETIN]
- Activity [15]: 46.7%
- Activity [16]: 32%
- Activity [17]: 73%
- IC50 [18]: 4.6 µM

Compound: H-PKRPTTLNLFRRRQRRKKRG-OH
- IC50 [12]: 1.2 µM
- IC50 [13]: 0.092 µM
- IC50 [14]: 1.16 µM

Further lines, results first:

- IC50 [1]: 1.4 µM
- IC50 [2]: 0.055 µM
Compound: Cc1ccc(NC(=O)c2cccc(-n3cc(NC(=O)Nc4ccccc4Cl)cn3)c2)cn1

- IC50 [5]: 0.0319 µM
- IC50 [6]: 0.507 µM
Compound: O=[N+]([O-])c1cnc(Sc2nnc(O)n2-c2ccc3c(c2)OCCO3)s1

- IC50 [7]: 12.2 µM
Compound: O=c1c(O)c(-c2cc(O)c(O)c(CO)c2)oc2cc(O)c(O)c(O)c12

- IC50 [8]: 0.0582 µM
Compound: O=C(CSc1c(-c2ccccc2)c2cc(Cl)ccc2[nH]c1=O)NC1CCCC1

- IC50 [10]: 0.012 µM
- IC50 [8]: 0.099 µM
Compound: CC(C)CN(CC(=O)NCCCCCCNC(=O)c1ccc(-c2n[nH]c3ccccc23)cc1)C(=O)CNC(=O)C1COc2ccccc2C1 (stereo unspecified)
